From ChEMBL document CHEMBL1134893, “Novel 20-carbonate linked prodrugs of camptothecin and 9-aminocamptothecin designed for activation by tumour-associated plasmin” (2002)

Legend:
Assay type in all cases: functional
Conditions in all cases: read-out: ID50 (the source's name)
[1] = system: A498; test: Inhibitory dose required against A498 human tumor cell lines
[2] = system: IGROV-1; test: Inhibitory dose required against IGROV human tumor cell lines
[3] = system: WiDr; test: Inhibitory dose required against WIDR human tumor cell lines
[4] = system: M19-MEL; test: Inhibitory dose required against M19 human tumor cell lines
[5] = system: NCI-H226; test: Inhibitory dose required against H226 human tumor cell lines
[6] = system: MCF7; test: Inhibitory dose required against MCF-7 human tumor cell lines
[7] = system: EVSA-T; test: Inhibitory dose required against EVSA-T human tumor cell lines

| Structure (SMILES) | IC50 [1] | IC50 [2] | IC50 [3] | IC50 [4] | IC50 [5] | IC50 [6] | IC50 [7] |
| --- | --- | --- | --- | --- | --- | --- | --- |
| CC[C@@]1(OC(=O)OCc2ccc(NC(=O)[C@H](CCCCN)NC(=O)[C@H](Cc3ccccc3)NC(=O)[C@@H](C)N)cc2)C(=O)OCc2c1cc1n(c2=O)Cc2cc3c(N)cccc3nc2-1.Cl.Cl.Cl | 0.039 µg/mL | 0.008 µg/mL | 0.007 µg/mL | 0.01 µg/mL | 0.021 µg/mL | 0.019 µg/mL | 0.137 µg/mL |
| CC[C@@]1(OC(=O)OCc2ccc(NC(=O)[C@H](CCCCN)NC(=O)[C@H](Cc3ccccc3)NC(=O)[C@@H](C)N)cc2)C(=O)OCc2c1cc1n(c2=O)Cc2cc3ccccc3nc2-1.Cl.Cl | 0.022 µg/mL | 0.02 µg/mL | 0.022 µg/mL | 0.219 µg/mL | 0.111 µg/mL | 0.01 µg/mL | 0.049 µg/mL |
| CC[C@@]1(O)C(=O)OCc2c1cc1n(c2=O)Cc2cc3c(N)cccc3nc2-1 [9-AMINOCAMPTOTHECIN] | < 0.01 µg/mL | < 0.0032 µg/mL | < 0.0032 µg/mL | < 0.024 µg/mL | < 0.007 µg/mL | < 0.0032 µg/mL | < 0.0032 µg/mL |
| CC[C@@]1(O)C(=O)OCc2c1cc1n(c2=O)Cc2cc3ccccc3nc2-1 [CAMPTOTHECIN] | < 0.0032 µg/mL | < 0.0032 µg/mL | < 0.0032 µg/mL | < 0.013 µg/mL | < 0.005 µg/mL | < 0.0032 µg/mL | < 0.0032 µg/mL |
